We go through four compounds from patent US9988430B2, “Stable GLP-1 based GLP-1/glucagon receptor co-agonists” (Novo Nordisk A/S, priority 2014, dated 2018).

SMILES strings stand for the structures. *1 amine or outer side, *2 acyl side, *3 side chain or, on linkers, in order; H or OH if unused. Where a SMILES comes first, the peptide text is derived from it. Side-chain parts run from the residue outwards. [ ]: non-standard residue; d: D form. The star is where a group is joined. C20 diacid = O=C(O)CCCCCCCCCCCCCCCCCCC(=O)*; C18 diacid = O=C(O)CCCCCCCCCCCCCCCCC(=O)*; γGlu = O=C(O)[C@H](CCC(=O)[*:2])N[*:1]; Desaminohistidyl = O=C(CCc1c[nH]cn1)*; Ac4c = NC1(C(=O)O)CCC1; AEEA = NCCOCCOCC(=O)O; Aib = CC(C)(N)C(=O)O

The target in the assay is T1, human GLP-1 receptor (Homo sapiens, UniProt P43220).
T1 construct: expressed in transfected cells; host or cells: membranes of BHK cells, parent line BHKTS13, clone FCW467-12A
T1 sequence (P43220 24-463): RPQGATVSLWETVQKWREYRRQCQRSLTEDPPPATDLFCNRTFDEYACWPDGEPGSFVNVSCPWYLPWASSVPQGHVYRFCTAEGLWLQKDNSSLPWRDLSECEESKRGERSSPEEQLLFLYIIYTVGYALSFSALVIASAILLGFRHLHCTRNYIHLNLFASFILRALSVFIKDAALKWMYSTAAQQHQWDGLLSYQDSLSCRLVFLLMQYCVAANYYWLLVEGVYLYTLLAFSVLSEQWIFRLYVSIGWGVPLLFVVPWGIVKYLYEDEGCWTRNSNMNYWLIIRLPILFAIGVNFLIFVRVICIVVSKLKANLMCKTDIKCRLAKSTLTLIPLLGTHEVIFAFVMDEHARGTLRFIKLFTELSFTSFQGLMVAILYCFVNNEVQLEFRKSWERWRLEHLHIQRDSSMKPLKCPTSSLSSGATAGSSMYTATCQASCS
The assay is described as follows: Assay (II)(a): GLP-1 receptor binding, [125I]GLP-1 displacement, SPA on BHK membranes. The following applies: displacement of [125I]GLP-1, membranes with human GLP-1 receptor; read-out: IC50 GLP-1R. The method, then:
Assay (II): GLP-1 and Glucagon Receptor Binding The purpose of this assay is to test the in vitro receptor binding activity of the GLP-1 derivatives of the invention. (a) GLP-1 Receptor Binding The GLP-1 receptor (GLP-1R) binding is a measure of the affinity of a derivative for the human GLP-1 receptor. The GLP-1 receptor binding of each derivatives were determined with competitive binding, displacing [^125I]GLP-1 bound to GLP-1 receptors expressed in cell membranes associated with wheat germ agglutinin (WGA) scintillation proximity assay (SPA) beads. Each derivative was added in a series of concentrations to isolated membranes comprising the human GLP-1 receptor and displacement of the labelled radioligand was monitored. The receptor binding was reported as the concentration at which half of the labelled ligand is displaced from the receptor, the IC^50 value. The following chemicals were used in the assay: MEM w/o phenol red (Gibco 11880-028), Pen/strep (Invitrogen 15140-122), G418 (Invitrogen 10131-027), 1 M Hepes (Gibco 15630), EDTA (Invitrogen 15575-038), PBS (Invitrogen 14190-094), fetal calf serum (Invitrogen 16140-071), EGTA, MgCl2 (Merck 1.05832.1000), Tween 20 (Amresco 0850C335), SPA particles (wheat germ agglutinin (WGA) SPA beads, Perkin Elmer RPNQ0001), [125I]-GLP-1]-(7-36)NH2 (produced in-house), OptiPlate™-96 (Perkin Elmer). Buffer 1 consisted of 20 mM Na-HEPES plus 10 mM EDTA and pH was adjusted to 7.4. Buffer 2 consisted of 20 mM Na-HEPES plus 0.1 mM EDTA and pH was adjusted to 7.4. Assay buffer consisted of 50 mM HEPES supplemented with 5 mM EGTA, 5 mM MgCl2, 0.005% Tween 20 and pH was adjusted to 7.4. A 0.02% albumin stock consisted of HSA dissolved at 0.02% (w/v) in assay buffer. The cells used in this assay (clone FCW467-12A) were BHK cells with BHKTS13 as a parent cell line. The cells express the human GLP-1 receptor. The cells were grown at 5% CO2 in DMEM, 10% fetal calf serum, 1% Pen/Strep (Penicillin/Streptomycin) and 1.0 mg/ml of the selection marker G418. To make a membrane preparation the cells were grown to approximately 80% confluence. The cells were washed twice in phosphate-buffered saline and harvested. The cells were pelleted using a brief centrifugation and the cell pellet was kept on ice. The cell pellet was homogenised with ULTRA-THURRAX dispersing instrument for 20-30 seconds in a suitable amount of buffer 1 (e.g., 10 ml). The homogenate was centrifuged for 15 minutes. The pellet was re-suspended (homogenised) in 10 ml buffer 2 and centrifuged. This step was repeated once more. The resulting pellet was re-suspended in buffer 2 and the protein concentration was determined. The membranes were aliquoted and stored at minus 80° C. • 1. For the receptor binding assay 50 μl of the assay buffer was added to each well of an assay plate. • 2. Test compounds were serially diluted to give the following concentrations: 8×10EE-7 M, 8×10EE-8 M, 8×10EE-9 M, 8×10EE-10 M, 8×10EE-11 M, 8×10EE-12 M and 8×10EE-13 M. Twenty-five μl were added to appropriate wells in the assay plate. • 3. Cell membrane aliquots were thawed and diluted to their working concentration. Fifty μl were added to each well in the assay plate. • 4. WGA SPA beads were suspended in assay buffer at 20 mg/ml. The suspension was diluted to 10 mg/ml in assay buffer just prior to addition to the assay plate. Fifty μl were added to each well in the assay plate. • 5. The incubation was started by adding 25 μl of 480 pM solution of [125I]-GLP-1]-(7-36)NH2 to each well of the assay plate. A 25 μl aliquot was reserved for measuring total counts/well. • 6. The assay plate was incubated for 2 h at 30° C. • 7. The assay plate was centrifuged for 10 min. • 8. The assay plate was read in a Perkin Elmer TopCount NXT instrument. Calculations The data from the TopCount instrument were transferred to GraphPad Prism software. The software averaged the values for the replicates and performed a non-linear regression. IC50 values were calculated by the software and reported in nM. […]
On the technique in general: Displacement assays read how much labelled ligand stays bound in the presence of the test substance.

Broadly, the IC50 is the concentration that gives 50% inhibition.

`CC[C@H](C)[C@H](NC(=O)[C@H](Cc1ccccc1)NC(=O)[C@H](CCC(=O)O)NC(=O)[C@H](CCCNC(=N)N)NC(=O)[C@H](C)NC(=O)[C@H](C)NC(=O)[C@H](CCCNC(=N)N)NC(=O)[C@H](CCCCNC(=O)CC[C@H](NC(=O)CC[C@H](NC(=O)COCCOCCNC(=O)COCCOCCNC(=O)CC[C@H](NC(=O)CCCCCCCCCCCCCCCCC(=O)O)C(=O)O)C(=O)O)C(=O)O)NC(=O)[C@H](CCC(=O)O)NC(=O)[C@H](CC(C)C)NC(=O)[C@H](Cc1ccc(O)cc1)NC(=O)[C@H](CCCCN)NC(=O)[C@H](CO)NC(=O)[C@@H](NC(=O)[C@H](CC(=O)O)NC(=O)[C@H](CO)NC(=O)[C@@H](NC(=O)[C@H](Cc1ccccc1)NC(=O)[C@@H](NC(=O)CNC(=O)[C@H](Cc1c[nH]cn1)NC(=O)C1(NC(=O)CCc2c[nH]cn2)CCC1)[C@@H](C)O)[C@@H](C)O)C(C)C)C(=O)N[C@@H](C)C(=O)N[C@@H](Cc1c[nH]c2ccccc12)C(=O)N[C@@H](CC(C)C)C(=O)N[C@@H](CC(C)C)C(=O)N[C@@H](CCCCN)C(=O)N[C@H](C(N)=O)[C@@H](C)O` [Example 32, N^ε22-[(4S)-4-carboxy-4-[[(4S)-4-carboxy-4-[[2-[2-[2-[[2-[2-[2-[[(4S)-4-carboxy-4-(17-carboxyheptadecanoylamino)butanoyl]amino]ethoxy]ethoxy]acetyl]amino]ethoxy]ethoxy]acetyl]amino]butanoyl]amino]butanoyl]-[Imp7,Acb8,His9,Lys18,Lys22,Arg23,Arg26,Leu33,Thr35]-GLP-1-(7-35)-peptide amide] (Desaminohistidyl-[Ac4c]HGTFTSDVSKYLEK([γGlu-γGlu-AEEA-AEEA-γGlu-C18 diacid])RAAREFIAWLLKT-NH2): the IC50 came to 0.2 nM.

Regarding `CC[C@H](C)[C@H](NC(=O)[C@H](Cc1ccccc1)NC(=O)[C@H](CCC(=O)O)NC(=O)[C@H](CCCNC(=N)N)NC(=O)[C@H](C)NC(=O)[C@H](C)NC(=O)[C@H](CCC(N)=O)NC(=O)[C@H](CCCCNC(=O)CC[C@H](NC(=O)CC[C@H](NC(=O)COCCOCCNC(=O)COCCOCCNC(=O)CC[C@H](NC(=O)CCCCCCCCCCCCCCCCC(=O)O)C(=O)O)C(=O)O)C(=O)O)NC(=O)[C@H](CCC(=O)O)NC(=O)[C@H](CC(C)C)NC(=O)[C@H](Cc1ccc(O)cc1)NC(=O)[C@H](CCCCN)NC(=O)[C@H](CO)NC(=O)[C@@H](NC(=O)[C@H](CC(=O)O)NC(=O)[C@H](CO)NC(=O)[C@@H](NC(=O)[C@H](Cc1ccccc1)NC(=O)[C@@H](NC(=O)CNC(=O)[C@H](Cc1c[nH]cn1)NC(=O)C1(NC(=O)CCc2c[nH]cn2)CCC1)[C@@H](C)O)[C@@H](C)O)C(C)C)C(=O)N[C@@H](C)C(=O)N[C@@H](Cc1c[nH]c2ccccc12)C(=O)N[C@@H](CC(C)C)C(=O)N[C@@H](CC(C)C)C(=O)N[C@@H](CCCCN)C(=O)N[C@H](C(N)=O)[C@@H](C)O` [Example 33, N^ε22-[(4S)-4-carboxy-4-[[(4S)-4-carboxy-4-[[2-[2-[2-[[2-[2-[2-[[(4S)-4-carboxy-4-(17-carboxyheptadecanoylamino)butanoyl]amino]ethoxy]ethoxy]acetyl]amino]ethoxy]ethoxy]acetyl]amino]butanoyl]amino]butanoyl]-[Imp7,Acb8,His9,Lys18,Lys22,Arg26,Leu33,Thr35]-GLP-1-(7-35)-peptide amide] (Desaminohistidyl-[Ac4c]HGTFTSDVSKYLEK([γGlu-γGlu-AEEA-AEEA-γGlu-C18 diacid])QAAREFIAWLLKT-NH2), the half-inhibitory concentration (IC50) worked out at 0.2 nM.

Consider `CC[C@H](C)[C@H](NC(=O)[C@H](Cc1ccccc1)NC(=O)[C@H](CCC(=O)O)NC(=O)[C@H](CCCNC(=N)N)NC(=O)[C@H](C)NC(=O)[C@H](C)NC(=O)[C@H](CCC(N)=O)NC(=O)[C@H](CCC(=O)O)NC(=O)[C@H](CCC(=O)O)NC(=O)[C@H](CC(C)C)NC(=O)[C@H](Cc1ccc(O)cc1)NC(=O)[C@H](CCCCN)NC(=O)[C@H](CO)NC(=O)[C@@H](NC(=O)[C@H](CC(=O)O)NC(=O)[C@H](CO)NC(=O)[C@@H](NC(=O)[C@H](Cc1ccccc1)NC(=O)[C@@H](NC(=O)CNC(=O)[C@H](Cc1c[nH]cn1)NC(=O)C(C)(C)NC(=O)CCc1c[nH]cn1)[C@@H](C)O)[C@@H](C)O)C(C)C)C(=O)N[C@@H](C)C(=O)N[C@@H](Cc1c[nH]c2ccccc12)C(=O)N[C@@H](CC(C)C)C(=O)N[C@@H](CC(C)C)C(=O)N[C@@H](CCCCNC(=O)COCCOCCNC(=O)COCCOCCNC(=O)CC[C@H](NC(=O)CC[C@H](NC(=O)CCCCCCCCCCCCCCCCCCC(=O)O)C(=O)O)C(=O)O)C(=O)N[C@H](C(N)=O)[C@@H](C)O` [Example 40, N^ε34-[2-[2-[2-[[2-[2-[2-[[(4S)-4-carboxy-4-[[(4S)-4-carboxy-4-(19-carboxynonadecanoylamino)butanoyl]amino]butanoyl]amino]ethoxy]ethoxy]acetyl]amino]ethoxy]ethoxy]acetyl]-[Imp7,Aib8,His9,Lys18,Glu22,Arg26,Leu33,Thr35]-GLP-1-(7-35)-peptide amide] (Desaminohistidyl-[Aib]HGTFTSDVSKYLEEQAAREFIAWLLK([AEEA-AEEA-γGlu-γGlu-C20 diacid])T-NH2), for which the concentration for half-maximal inhibition (IC50) stood at 0.4 nM.

Regarding `CC[C@H](C)[C@H](NC(=O)[C@H](Cc1ccccc1)NC(=O)[C@H](CCC(=O)O)NC(=O)[C@H](CCCNC(=N)N)NC(=O)[C@H](C)NC(=O)[C@H](C)NC(=O)[C@H](CCC(N)=O)NC(=O)[C@H](CCC(=O)O)NC(=O)[C@H](CCC(=O)O)NC(=O)[C@H](CC(C)C)NC(=O)[C@H](Cc1ccc(O)cc1)NC(=O)[C@H](CCCCN)NC(=O)[C@H](CO)NC(=O)[C@@H](NC(=O)[C@H](CC(=O)O)NC(=O)[C@H](CO)NC(=O)[C@@H](NC(=O)[C@H](Cc1ccccc1)NC(=O)[C@@H](NC(=O)CNC(=O)[C@H](Cc1c[nH]cn1)NC(=O)C(C)(C)NC(=O)CCc1c[nH]cn1)[C@@H](C)O)[C@@H](C)O)C(C)C)C(=O)N[C@@H](C)C(=O)N[C@@H](Cc1c[nH]c2ccccc12)C(=O)N[C@@H](CC(C)C)C(=O)N[C@H](C(=O)N[C@@H](CCCCNC(=O)COCCOCCNC(=O)COCCOCCNC(=O)CC[C@H](NC(=O)CC[C@H](NC(=O)CCCCCCCCCCCCCCCCC(=O)O)C(=O)O)C(=O)O)C(=O)N[C@H](C(N)=O)[C@@H](C)O)[C@@H](C)CC` [Example 42, N^ε34-[2-[2-[2-[[2-[2-[2-[[(4S)-4-carboxy-4-[[(4S)-4-carboxy-4-(17-carboxyheptadecanoylamino)butanoyl]amino]butanoyl]amino]ethoxy]ethoxy]acetyl]amino]ethoxy]ethoxy]acetyl]-[Imp7,Aib8, His9,Lys18,Glu22,Arg26,Ile33,Thr35]-GLP-1-(7-35)-peptide amide] (Desaminohistidyl-[Aib]HGTFTSDVSKYLEEQAAREFIAWLIK([AEEA-AEEA-γGlu-γGlu-C18 diacid])T-NH2), the half-maximal inhibitory concentration (IC50) was found to be 0.2 nM.
